Key:
[1] = known from the literature; cited from earlier work
[2] = Affinity of subject ligand for Zn2+; type: binding
Source text: Fluorescence Zn^2+ Binding Titration (Kd1). The first Kd associated with Zn^2+ binding will be measured by a fluorescence titration as described previously. Spectra of the subject ligand will be acquired by exciting at 490 nm or other suitable wavelength and collecting and integrating from 500–575 nm or other appropriate window. The measurements will be performed in triplicate to ensure accuracy of the Kd value.

Row | Compound | affinity and specificity for Zn^2+ over Mg^2+ and Ca^2+ [1] | affinity for Zn^2+ [2]
1 | c1ccc(CN(CCN(Cc2ccccn2)Cc2ccccn2)Cc2ccccn2)nc1 [TPEN] | very high affinity and specificity | 
2 | O=C(O)c1ccccc1-c1c2cc(Cl)c(=O)cc-2oc2cc(N(Cc3ccccn3)Cc3ccccn3)ccc12 [compound 30, 9-(o-Carboxyphenyl)-2-chloro-6-[bis(2-pyridylmethyl)amino]-3-xanthanone] |  | weak
